# Assay results reported in article PMC12281487, “Discovery and Validation of a Novel Class of Necroptosis Inhibitors Targeting RIPK1” (ACS Chemical Biology, 2025).
# Entries after “also recorded” stand apart in the source; their conditions may differ. Structures can show the parent of a compound that is named as a salt. Where two headings read alike, the source gives them in different places.
# Assays:
# [1] = test system: RIPK1 Ser166 phosphorylation; test: Western blot of RIPK1 Ser166 phosphorylation in I2.1 cells; format: cell-based, human; conditions: for phosphorylation of RIPK1 Ser166 after TNF: prior treatment with 10 μM compound
# Procedure: All compound treatments were performed with a preprepared 1000× stock of the desired concentration in DMSO and added directly to the relevant plate, with a final concentration of 0.1% DMSO on the cells. TNF (final concentration 575 pM) was added to induce necroptosis, the cells incubated for 4 h and harvested.
# (§1) Cells were transferred to a microcentrifuge tube and centrifuged at 200g for 5 min, and media were removed. Cells were washed with PBS and lysed with 100 μL of lysis buffer (radioimmunoprecipitation assay lysis buffer, Sigma-Aldrich, R0278) supplemented with 1× phosphatase inhibitor cocktail 2 (Sigma, P5726) and 1× complete EDTA-free protease inhibitor cocktail (Sigma, […])) on ice for 30 min. The lysate was collected by centrifugation at 17,000g, 4 °C for 5 min, and the lysate was transferred to a new microcentrifuge tube. Protein concentration was determined using the DC Protein Assay (Bio-Rad) in a 96-well plate as per the manufacturer’s instructions and subsequently adjusted to 1 mg mL^–1 using lysis buffer. Samples were prepared by adding 4 μL of 4× loading buffer (Biorad, 161-0747) containing β-mercaptoethanol to 12 μL of protein sample and boiling at 95 °C for 10 min. 14 μL of each sample was loaded onto a 4–15% Mini-PROTEAN TGX precast gel (Biorad, 456-1086) and run in 1× running buffer (0.25 M Tris, 0.2 M glycine, 0.1% (w/v) SDS) for 1.15 h at 130 V. Either 2 μL of precision plus protein all blue prestained protein standards (Bio-Rad, 1610373) or precision plus protein dual color standards (Bio-Rad, 1610374) was used in at least one well.
# Proteins were transferred onto a nitrocellulose membrane (GE Healthcare) using the Trans-Blot Turbo Transfer System (Biorad, 1704150) at 2.5 A and 25 V for 7 min. The membrane was stained with Ponceau S to confirm protein transfer prior to blocking with 5% (w/v) nonfat dried skimmed milk in TBS-T (1× Tris-buffered saline, 0.1% (v/v) Tween-20) at rt for 1 h. Staining with the desired primary antibody in 5% (w/v) nonfat dried skimmed milk in TBS-T was performed overnight at 4 °C. The blot was washed with TBS-T at rt (3 × 5 min) and stained with secondary antibody in 5% (w/v) nonfat dried skimmed milk in TBS-T for 1 h at rt. The blot was washed with TBS-T at rt (3 × 5 min), visualized with Immobilon Crescendo Western HRP substrate, and imaged using ImageQuant LAS-4000 Imaging System (Fujifilm), and the contrast normalized in Fiji.
# [2] = target: T1, RIPK1 (Homo sapiens, UniProt Q13546); test: Streptavidin mass shift assay (photoaffinity labeling, target engagement) in I2.1 cells; format: cell-based; conditions: particularly after 5 min of UV irradiation
# T1 construct: Following incubation of I2.1 cells with the probe, irradiation to induce photocrosslinking; endogenous in cells; host or cells: I2.1 FADD-deficient Jurkat T cells (ATCC, CRL-2572)
# T1 sequence (Q13546 1-671): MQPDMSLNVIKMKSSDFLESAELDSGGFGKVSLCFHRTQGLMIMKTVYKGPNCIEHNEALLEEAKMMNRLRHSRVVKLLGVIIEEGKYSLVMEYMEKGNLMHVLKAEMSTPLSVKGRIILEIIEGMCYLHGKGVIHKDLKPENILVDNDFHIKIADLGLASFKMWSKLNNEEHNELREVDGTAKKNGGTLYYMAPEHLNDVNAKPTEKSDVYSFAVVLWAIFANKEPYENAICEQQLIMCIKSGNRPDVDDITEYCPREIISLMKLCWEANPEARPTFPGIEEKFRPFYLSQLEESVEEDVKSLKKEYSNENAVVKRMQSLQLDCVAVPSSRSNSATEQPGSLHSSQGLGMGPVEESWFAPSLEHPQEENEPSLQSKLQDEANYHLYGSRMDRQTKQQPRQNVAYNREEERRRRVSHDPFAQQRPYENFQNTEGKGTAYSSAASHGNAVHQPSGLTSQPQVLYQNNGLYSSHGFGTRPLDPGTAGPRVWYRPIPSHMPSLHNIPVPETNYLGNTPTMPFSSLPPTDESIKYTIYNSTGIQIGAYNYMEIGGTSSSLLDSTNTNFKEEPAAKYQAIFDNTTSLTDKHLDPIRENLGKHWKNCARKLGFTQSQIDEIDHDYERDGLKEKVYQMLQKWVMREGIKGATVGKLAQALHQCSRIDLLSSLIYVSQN
# Procedure: Target engagement was confirmed by Streptavidin mass shift assay, whereby lysates are incubated with streptavidin and subsequently separated by SDS–PAGE. The high stability of streptavidin at a range of temperatures, in various detergents and pH, in combination with the extremely high affinity for biotin means the streptavidin–biotin interaction is not separated during gel electrophoresis, resulting in a mass shift of biotin-labeled proteins in the presence of streptavidin, which can be visualized by Western blot (Figure a).
# I2.1 cells were seeded in sterile six-well plates at a density of 2 × 10^6 cells per well and incubated at 37 °C overnight. 1000× stocks of the desired concentration of compound in DMSO were preprepared. […]
# Cells were transferred to a microcentrifuge tube, centrifuged at 200g for 5 min, and media removed. […] Protein concentration was determined using the DC Protein Assay (Bio-Rad) in a 96-well plate as per the manufacturer’s instructions and the concentration adjusted to 1–2 mg mL^–1 using lysis buffer. […]
# Samples were prepared by adding 4 μL of 4× loading buffer to 10 μL of the protein samples and boiling at 95 °C for 10 min. […] In-gel fluorescence was detected by using a Typhoon FLA 9500 biomolecular imager (750 V, 100 μm pixels). […]
# [3] = test system: I2.1 FADD–/– human Jurkat cells; test: IncuCyte necroptosis assay in I2.1 cells; conditions: for EC50: read-out: EC50 (95% CI), necroptosis inhibition; for EC50 values of well-characterized necroptosis inhibitors (assay validation), in words: Figure S1e
# Procedure: A cell-based assay was established to monitor necroptosis in I2.1 cells using the IncuCyte S3 live cell microscopy platform (Figure S1a). Necroptosis was induced by treatment with TNF, and Sytox Green was used to monitor membrane permeabilization over time as an indicator of progressive necroptotic cell death (Figure S1b–d), allowing determination of the EC50 of candidate necroptosis inhibitors.
# I2.1 cells were seeded in a sterile 96-well plate (Greiner) at 20,000 cells per well and incubated at 37 °C overnight. The cells were treated with a final concentration of 600 pM TNF, 1 μM Sytox Green, and compounds in a dose-dependent manner. Wells containing TNF and Sytox Green served as positive control. Wells containing DMSO and Sytox Green served as a negative control. The plate was placed into an IncuCyte S3 Live Cell Analysis System (Sartorius) and readings for phase and green fluorescence were taken every hour for 24 h, with 4 images per well. The images were analyzed with IncuCyte 2021C software and the Green Integrated Intensity Per Image/Phase Area Per Image (GCU × μm^2/image/μm^2/image or GP) was exported. The background at t = 0 h was subtracted, and the linear slope (t = 3–7 h) was calculated by plotting GP against time. The percent inhibition of necroptosis was determined by normalizing to the positive and negative controls and graphing against the [compound]. EC50 values were determined using Prism 10 for each replicate, which were then used to calculate the geometric mean EC50 and associated 95% CIs.
# I2.1 cells in a 96-well plate were treated with TNF to induce necroptosis, a dilution series of the candidate necroptosis inhibitor and Sytox Green to monitor cell death. Plates were placed in the IncuCyte® and imaged every hour for 24 h. Cell death was measured over time and used to determine the proportion of necroptotic cells compared to those without necroptosis induction or not treated with an inhibitor. The linear portion of the graph was used to determine an initial rate for calculation of the EC50. TNF with Sytox Green and Sytox Green alone were used as positive and negative controls, respectively. […] EC50 values are expressed as the geometric mean with a 95% confidence interval (CI) of at least three biological replicates.
# [4] = target: Aurora kinase B (Homo sapiens, UniProt Q96GD4); test: Kinase panel screen (SelectScreen, Z-lyte); format: biochemical; conditions: single concentration of 1 µM, % inhibition, Figure S2c
# Chain of Aurora kinase B (Q96GD4 whole entry): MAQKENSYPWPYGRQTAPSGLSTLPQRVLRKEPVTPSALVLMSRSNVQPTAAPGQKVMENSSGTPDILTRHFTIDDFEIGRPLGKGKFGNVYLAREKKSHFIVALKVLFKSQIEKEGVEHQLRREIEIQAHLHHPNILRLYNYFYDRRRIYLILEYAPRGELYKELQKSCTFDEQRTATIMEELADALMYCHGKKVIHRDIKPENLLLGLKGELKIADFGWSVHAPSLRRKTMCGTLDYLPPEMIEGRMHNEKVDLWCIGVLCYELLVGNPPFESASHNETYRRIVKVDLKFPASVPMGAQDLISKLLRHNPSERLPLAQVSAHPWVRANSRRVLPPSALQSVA
# Procedure: (a) Western blot analysis of RIPK1, RIPK3 and MLKL phosphorylation in HT-29 cells with treatment of necroptosis inhibitors and the 7PQ series. Results are representative of two experiments. […] Results are representative of two experiments. (c) Kinase activity panel screen. Compounds were screened at a single concentration of 1 µM at Thermofisher.
# The kinase data was provided by Thermofisher SelectScreen Biochemical Kinase Profiling service using the Z-lyte technology. Each compound was profiled at […] against a representative panel of 25 kinases.
# [5] = test system: C57BL/6J mice; test: TNF-induced SIRS murine model; conditions: 5 mg/kg i.v. 15 min before TNF 0.5 mg/kg i.v.
# Procedure: Male C57BL/6J mice of 18–25 g were used at the age of 6–8 weeks. Three animals were included in each experimental group. All animal experiments were carried out with the permission of the local animal ethical committee in accordance with the EU Directive (2010/63/EU), Portuguese laws (DL113/2013, 2880/2015, 260/2016), and all relevant legislations. Animals received humane care in a temperature-controlled environment with a 12 h light–dark cycle and ad libitum access to pelleted chow and water, complying with the Institute’s guidelines, and as outlined in the “Guide for the Care and Use of Laboratory Animals” prepared by the National Academy of Sciences and published by the National Institutes of Health (NIH publication 86-23 revised 1985). […] TNF was diluted in sterile PBS. […] All injections were administered intravenously (i.v.).
# [6] = test system: HT-29 cells; test: IncuCyte necroptosis assay in HT-29 cells; format: cell-based, human; conditions: TNF, birinapant and Z-VAD-FMK induced; Figure S1f
# Description: Wells containing TSZ served as a positive control.
# [7] = test system: RIPK1, RIPK3 and MLKL phosphorylation; test: Western blot of RIPK1, RIPK3 and MLKL phosphorylation in HT-29 cells; format: cell-based, human; conditions: TNF, birinapant and Z-VAD-FMK
# Procedure: All compound treatments were performed with a preprepared 1000× stock of the desired concentration and added directly to the relevant plate with a final concentration of 0.1% DMSO on the cells. A combination of TNF (final concentration of 1.2 nM), Birinapant (final concentration 100 nM), and Z-VAD-FMK (final concentration 20 μM) was added to induce necroptosis, the cells incubated for 7 h, and harvested.
# as §1, with “14 μL of each sample was loaded onto a 4–15% Mini-PROTEAN TGX precast gel (Biorad, 456-1086) and run in 1× running buffer (0.25 M Tris, 0.2 M glycine, 0.1% (w/v) SDS) for 1.15 h at 130 V. Either 2 μL of precision plus protein all blue prestained protein standards (Bio-Rad, 1610373) or precision plus protein dual color standards (Bio-Rad, 1610374) was used in at least one well.” left out
# [8] = TNF-induced necroptosis, I2.1 cells, Sytox Green, geometric mean with 95% CI, at least three biological replicates
molecule,measurement,setting,value
"C#CCN(CCC1(C)N=N1)S(=O)(=O)c1ccc(-c2ccc3cccnc3c2)cc1 [7PQYnD, N-(2-(3-Methyl-3H-diazirin-3-yl)ethyl)-N-(prop-2-yn-1-yl)-4-(quinolin-7-yl)benzenesulfonamide]",phosphorylation of RIPK1 Ser166 after TNF,[1],blocked
same,engagement of RIPK1 by the probe (streptavidin-shifted band),[2],Dose-dependent engagement of RIPK1
same,EC50,"[3]; Homo sapiens, Jurkat",8900 nM
same,fold less potent than the parent compounds AZ’902 and AZ’320 (necroptosis inhibition),[3]; I2.1 cells,2–5 fold
"CS(=O)(=O)CC1CN(S(=O)(=O)c2ccc(-c3ccc4cccnc4c3)cc2)C1 [AZ’320, 7-(4-((3-((Methylsulfonyl)methyl)azetidin-1-yl)sulfonyl)phenyl)quinoline]",dose dependence of the effect on phosphorylation of RIPK1 Ser166,[1],dose dependent
same,off-target activity in a panel of 25 kinases,[4],off–target activity observed primarily against Aurora kinase B
same,effects on temperature and body weight after TNF,[5],rescuing effects on temperature and body weight
same,protection from TNF-induced mortality (survival),[5]; 3 mice per group,completely reverted the toxic effects induced by TNF; also recorded: preventing mortality
same,EC50,"[3]; Homo sapiens, Jurkat",4900 nM
"CC(=O)N1CC[C@H](CN(C)S(=O)(=O)c2ccc(-c3ccc4cccnc4c3)cc2)C1 [AZ’902, (S)-N-((1-Acetylpyrrolidin-3-yl)methyl)-N-methyl-4-(quinolin-7-yl)benzenesulfonamide]",necroptosis inhibition activity in HT-29 cells,[6],confirmed
same,dose dependence of the effect on phosphorylation of RIPK1 Ser166,[1],dose dependent
same,phosphorylation of RIPK1 Ser166 after TNF,[1],blocked
same,off-target activity in a panel of 25 kinases,[4],off–target activity observed primarily against Aurora kinase B
same,EC50,"[3]; Homo sapiens, Jurkat",1600 nM
"CC(C)S(=O)(=O)c1ccc2nccc(Nc3ccc4scnc4c3)c2c1 [GSK’872, reference compound]",phosphorylation of RIPK1 Ser166 after TNF,[1],no inhibition
same,"phosphorylation of necrosome components (RIPK1, RIPK3, MLKL)",[7],inhibited phosphorylation of RIPK3 and MLKL but not RIPK1
same,"EC50 values of well-characterized necroptosis inhibitors (assay validation), in words",[3]; I2.1 cells,consistent with those previously reported
"COc1nccnc1NS(=O)(=O)c1ccc(NC(=O)/C=C/c2ccc([N+](=O)[O-])s2)cc1 [NSA, Necrosulfonamide, reference compound]","phosphorylation of necrosome components (RIPK1, RIPK3, MLKL)",[7],retained phosphorylation of all components of the necrosome
same,"EC50 values of well-characterized necroptosis inhibitors (assay validation), in words",[3]; I2.1 cells,consistent with those previously reported
"CN1C(=O)NC(Cc2c[nH]c3c(Cl)cccc23)C1=O (centres unmarked) [Nec-1s, reference compound]","EC50 values of well-characterized necroptosis inhibitors (assay validation), in words",[3]; I2.1 cells,consistent with those previously reported
"CC(=O)N1CC[C@@H](CN(C)S(=O)(=O)c2ccc(-c3ccc4cccnc4c3)cc2)C1 [compound 1, (R)-N-((1-Acetylpyrrolidin-3-yl)methyl)-N-methyl-4-(quinolin-7-yl)benzenesulfonamide]",EC50,"[3]; Homo sapiens, Jurkat",1000 nM
"CN(C[C@H]1CCNC1)S(=O)(=O)c1ccc(-c2ccc3cccnc3c2)cc1 [compound 2, (S)-N-Methyl-N-(pyrrolidin-3-ylmethyl)-4-(quinolin-7-yl)benzenesulfonamide·HCl]",EC50,"[3]; Homo sapiens, Jurkat",1700 nM
"CC(C)(C)OC(=O)N1CC[C@H](CNC(=O)c2ccc(-c3ccc4cccnc4c3)cc2)C1 [compound 4, tert-Butyl (R)-3-((4-(Quinolin-7-yl)benzamido)methyl)pyrrolidine-1-carboxylate]",EC50,"[3]; Homo sapiens, Jurkat",3000 nM
"CC(C)(C)OC(=O)N1CC[C@@H](NC(=O)c2ccc(-c3ccc4cccnc4c3)cc2)C1 [compound 5, tert-Butyl (R)-3-(4-(Quinolin-7-yl)benzamido)pyrrolidine-1-carboxylate]",EC50,"[3]; Homo sapiens, Jurkat",6700 nM
"O=C(c1ccc(-c2ccc3cccnc3c2)cc1)N1CCOCC1 [compound 6, Morpholino(4-(quinolin-7-yl)phenyl)methanone]",EC50,"[3]; Homo sapiens, Jurkat",23000 nM
"O=C(c1ccc(-c2ccc3ccncc3c2)cc1)N1CCOCC1 [compound 7, (4-(Isoquinolin-7-yl)phenyl)(morpholino)methanone]","EC50 (95% CI), necroptosis inhibition",[3]; [8],Inactive
"O=C(c1ccc(-c2ccc3cnccc3c2)cc1)N1CCOCC1 [compound 8, (4-(Isoquinolin-6-yl)phenyl)(morpholino)methanone]","EC50 (95% CI), necroptosis inhibition",[3]; [8],Inactive
"O=C(c1ccc(-c2ccc3ncccc3c2)cc1)N1CCOCC1 [compound 9, Morpholino(4-(quinolin-6-yl)phenyl)methanone]","EC50 (95% CI), necroptosis inhibition",[3]; [8],Inactive
"O=C(c1ccc(-c2cnc3ccccc3c2)cc1)N1CCOCC1 [compound 10, Morpholino(4-(quinolin-3-yl)phenyl)methanone]","EC50 (95% CI), necroptosis inhibition",[3]; [8],Inactive
"O=C(c1ccc(-c2ccc3ccccc3n2)cc1)N1CCOCC1 [compound 11, Morpholino(4-(quinolin-2-yl)phenyl)methanone]","EC50 (95% CI), necroptosis inhibition",[3]; [8],Inactive
"O=C(c1ccc(-c2ccc3nccnc3c2)cc1)N1CCOCC1 [compound 12, Morpholino(4-(quinoxalin-6-yl)phenyl)methanone]","EC50 (95% CI), necroptosis inhibition",[3]; [8],Inactive; also recorded: loss of activity
tert-Butyl(S)-3-(((N-methyl-4-(quinolin-7-yl)phenyl)sulfonamido)methyl)pyrrolidine-1-carboxylate [compound 3],EC50,[3]; [8],2500 nM
